“And” between values parts separate entries of the source, which are not always exact repeats. Equal entries are not always repeated.
Key:
[1] = target: T1, Igf2bp1 binding to Kras 6 RNA (Homo sapiens, UniProt Q9NZI8); test: Fluorescence polarization (FP) assay of Igf2bp1 binding to fluorescent Kras 6 RNA; settings: FP dose response; read-out: IC50 for inhibition of Igf2bp1 binding to Kras 6 RNA
T1 construct: Recombinant full-length Igf2bp1 protein; made in house; host or cells: E. coli BL21(DE3)
Method: For the small molecule screen, compounds were obtained from the collection maintained at the Grand Israel National Center for Personalized Medicine, consisting of molecules purchased from commercial vendors. Labelled RNA (10 nM) was incubated with recombinant Igf2bp1 protein (400 nM) in FAM-RNA buffer (10 mM Tris pH 8.0, 75 mM KCl, 0.5 mM EDTA, 1 mM DTT, 0.0188 U/μL RNAsin, 0.0005 μg/mL heparin, 0.0001 μg/μL tRNA, 0.01% Triton X-100, 3 mM MgCl2, 0.05% IGEPAL) at room temperature for 15 min. […] of this reaction mix was aliquoted with GNF WDII (USA) into wells of 1536 well plates, with a final concentration of […] compound or DMSO. The plates were spun down and read in a BMG Pherastar FS (Germany) plate reader plate reader, in FP mode with a 485/520/520 polarization filter, calibrated to 35 mP for free fluorescein with similar total intensity as experimental samples. […]
To determine the quality of the inventors screening assay, the Z′ factor for each plate was calculated with a Z′ factor greater than 0.5 indicating a robust assay suitable for high throughput screening. Compounds that altered the overall fluorescence intensity compared to controls were considered auto florescence and excluded from further analysis. […] Any small molecule that causes a change of more than three standard deviations from the mean is determined appropriate for further investigation.

[2] = target: La binding to Bcl2 RNA (Homo sapiens, UniProt P05455); test: FP counter assay, La binding to Bcl2 RNA
[3] = target: T2, Igf2bp1 (Homo sapiens, UniProt Q9NZI8); test: Microscale thermophoresis (MST) binding to full-length Igf2bp1; settings: full-length protein, unit printed μM
T2 construct: Recombinant full-length Igf2bp1 protein; made in house; host or cells: E. coli BL21(DE3)
Method: (§1) Recombinant full-length Igf2bp1 protein was labelled with RED-tris-NTA dye using a Monolith NT His-Tag Labelling Kit (NanoTemper) while RRM12, KH12 and KH34 di-domain peptides were labelled using the Protein Labeling Kit RED NHS 2nd generation (NanoTemper). Labelled proteins were spun at 15,000 g for 5 min to eliminate aggregates. All samples were 2× labelled protein mix of Igf2bp1 (200 nM) in PBST and were combined (1:1) with serial dilutions of compound or Kras6 RNA in binding buffer (10 mMTris pH=7.5, 100 mM NaCl, 0.1 mM EDTA, 0.06% IPEGAL, 0.02 μg/μL tRNA, 2 mM DTT, 0.1 μg/μL heparin) in final volume of 20 μL, room temperature for 15 min. Samples were then loaded into standard capillaries (NanoTemper) and read in the Monolith NT.115 scanner (NanoTemper) using the red filter with reading conditions of 95% LED power and 40% MST power, 5 sec fluorescence before, 30 sec MST on, 5 sec fluorescence after and 25 sec delay between samples. Results were analyzed using the MO Control software (NanoTemper) for curve fitting to KD.

[4] = target: T3, Igf2bp1 KH12 di-domain (Homo sapiens, UniProt Q9NZI8); test: MST binding to Igf2bp1 di-domain KH12
T3 construct: KH12 (V194-N369); 6xHis/GST (N, cleaved yes); made in house; host or cells: E. coli BL21(DE3)
Method: as §1

[5] = target: T4, Igf2bp1 KH34 di-domain (Homo sapiens, UniProt Q9NZI8); test: MST binding to Igf2bp1 di-domain KH34
T4 construct: KH34 (P387-A574); 6xHis (N, cleaved yes); made in house; host or cells: E. coli BL21(DE3)
Method: as §1

[6] = target: T5, Igf2bp2 (Homo sapiens, UniProt Q9Y6M1); test: MST binding to Igf2bp2; settings: even at concentrations that almost saturate binding to Igf2bp1
T5 construct: His tag (C); made in house; host or cells: E. coli BL21(DE3)

[7] = test system: HEK293 cells; test: Wound healing (cell migration) assay, HEK293 cells; type: cell-based, human
Method: Cells were seeded in 96 IncuCyte® ImageLock plates (20×10^3 cells per well) for 24 hours, to a near confluency of 95%, before the addition of increasing concentrations of compound. After a further 24 hours, wells were scratched using the IncuCyte® 96-well WoundMaker Tool, and the cells cultured for an additional 48 hours using the IncuCyte® S3 Live-Cell Analysis System (Essen BioScience). The plate was imaged at increments of 120 minutes for a period of 48 hours, and then analyzed for relative wound healing.

[8] = test system: H1299 cells; test: Cell proliferation assay (Incucyte), H1299 cells; type: cell-based, human; settings: H1299, up to 20 mM 7773
Method: ES2, H1299 and HEK293 cells were seeded in a 96 well plate (5×10^3 cells per well) for 24 hours before adding the compound at increasing concentrations. After an additional 24 hours, the plate was incubated in an IncuCyte® S3 Live-Cell Analysis System (Essen BioScience). The wells were filmed for 72 hours, and then analyzed for proliferation rate Using IncuCyte® S3 Live-Cell Analysis System (Essen BioScience)

[9] = test system: H1299 cells; test: Cytotoxicity and cell viability, H1299 cells; type: cell-based, human; design: Cell viability: dose or concentration left out as unconfirmed

T1 sequence (Q9NZI8 whole entry): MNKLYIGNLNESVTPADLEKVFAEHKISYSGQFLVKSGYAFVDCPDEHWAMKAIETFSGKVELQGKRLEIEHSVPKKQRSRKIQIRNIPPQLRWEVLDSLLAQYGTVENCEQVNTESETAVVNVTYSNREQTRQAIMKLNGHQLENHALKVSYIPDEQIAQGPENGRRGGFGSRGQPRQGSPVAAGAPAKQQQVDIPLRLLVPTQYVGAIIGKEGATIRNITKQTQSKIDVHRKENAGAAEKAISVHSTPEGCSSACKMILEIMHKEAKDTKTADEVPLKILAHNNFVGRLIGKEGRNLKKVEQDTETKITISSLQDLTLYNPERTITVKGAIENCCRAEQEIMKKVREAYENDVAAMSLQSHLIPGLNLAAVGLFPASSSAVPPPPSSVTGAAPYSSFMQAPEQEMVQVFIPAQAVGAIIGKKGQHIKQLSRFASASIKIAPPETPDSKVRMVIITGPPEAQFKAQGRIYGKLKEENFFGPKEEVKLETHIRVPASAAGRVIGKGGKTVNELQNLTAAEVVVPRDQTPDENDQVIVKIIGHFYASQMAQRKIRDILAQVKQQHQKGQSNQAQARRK
Sequence of La binding to Bcl2 RNA (P05455 whole entry): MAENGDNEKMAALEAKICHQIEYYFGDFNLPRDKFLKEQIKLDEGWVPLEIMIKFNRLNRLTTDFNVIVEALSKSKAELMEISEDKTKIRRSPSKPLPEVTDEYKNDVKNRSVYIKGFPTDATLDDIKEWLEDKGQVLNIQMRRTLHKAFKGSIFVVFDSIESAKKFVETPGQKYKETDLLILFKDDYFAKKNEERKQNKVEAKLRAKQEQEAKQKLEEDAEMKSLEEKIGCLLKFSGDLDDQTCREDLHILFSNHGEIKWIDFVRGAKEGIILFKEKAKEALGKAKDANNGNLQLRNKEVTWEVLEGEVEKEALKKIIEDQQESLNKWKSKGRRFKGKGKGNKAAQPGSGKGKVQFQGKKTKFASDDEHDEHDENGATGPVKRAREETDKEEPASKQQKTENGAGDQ
T2 sequence (Q9NZI8 whole entry): as the sequence (Q9NZI8 whole entry) above
T4 sequence (Q9NZI8 387-574): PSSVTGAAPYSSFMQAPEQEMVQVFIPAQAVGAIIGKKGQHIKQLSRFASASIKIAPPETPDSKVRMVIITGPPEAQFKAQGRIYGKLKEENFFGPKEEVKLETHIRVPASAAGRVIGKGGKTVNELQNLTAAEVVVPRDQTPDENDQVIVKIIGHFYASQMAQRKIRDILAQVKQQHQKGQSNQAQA
T5 sequence (Q9Y6M1 whole entry, species assumed): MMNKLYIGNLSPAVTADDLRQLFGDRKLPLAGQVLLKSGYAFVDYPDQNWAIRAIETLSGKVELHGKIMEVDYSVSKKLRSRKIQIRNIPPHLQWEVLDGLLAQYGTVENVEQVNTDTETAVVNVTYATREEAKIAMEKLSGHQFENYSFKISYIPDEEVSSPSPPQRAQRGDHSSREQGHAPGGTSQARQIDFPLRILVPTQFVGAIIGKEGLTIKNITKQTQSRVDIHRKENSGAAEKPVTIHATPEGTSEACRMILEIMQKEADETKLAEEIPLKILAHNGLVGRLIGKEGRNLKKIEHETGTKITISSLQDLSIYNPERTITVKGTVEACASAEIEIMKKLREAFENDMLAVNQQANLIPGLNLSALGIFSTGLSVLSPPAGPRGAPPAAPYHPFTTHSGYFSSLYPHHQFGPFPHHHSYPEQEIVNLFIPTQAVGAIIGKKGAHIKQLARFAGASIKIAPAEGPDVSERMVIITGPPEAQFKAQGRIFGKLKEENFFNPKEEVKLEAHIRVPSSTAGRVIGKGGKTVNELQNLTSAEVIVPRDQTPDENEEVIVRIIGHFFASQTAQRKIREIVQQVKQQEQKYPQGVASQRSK
T3 sequence (Q9NZI8 194-369): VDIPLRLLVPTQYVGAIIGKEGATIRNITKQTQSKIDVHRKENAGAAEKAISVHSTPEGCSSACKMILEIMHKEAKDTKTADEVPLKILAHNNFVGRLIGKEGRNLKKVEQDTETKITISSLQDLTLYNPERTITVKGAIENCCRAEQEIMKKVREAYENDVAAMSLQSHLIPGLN

In the case of `O=C(c1ccc(Cn2cnnn2)cc1)N1CCCC(Nc2ccc3c(c2)OCO3)C1` (stereo not drawn) [Compound 7773], the IC50 [1] is reported as ~30 µM and 15 to 36 µM, the “Effect on control RBP (La) binding to its target (Bcl2 RNA)” value ([2]; FP) is reported as “almost no effect” and the IC50 ([2]; FP control, n=3, read-out: IC50 for inhibition of La binding to Bcl2 RNA) is reported as greater than 100 µM. The Kd [3] was 17 µM, the “Binding to KH12 (MST)” value [4] was “no binding” and the Kd [5] was 7.2 µM. For the same compound, the “Binding to Igf2bp2 (MST)” value [6] was “did not significantly bind”, the “Inhibition of wound healing” value ([7]; HEK293, 5 mM 7773) was “discernible inhibition” and the “Inhibition of wound healing” value ([7]; HEK293, 20 mM 7773) was “strongly inhibited”. The Cell proliferation [8] was “remarkably unaffected”, the Cytotoxicity ([9]; H1299, 20, 10 or 5 mM 7773, 48 hours) was “virtually no effect” and the Cell viability ([9]; H1299, 7773, 48 hours) was “does not affect”.
